Laboratory results taken from US20200278355A1, “CONJUGATED PROTEINS AND USES THEREOF” (THE SCRIPPS RESEARCH INSTITUTE, priority 2017, published 2020).

Target: T1, SCP2 (Homo sapiens, UniProt P22307)
T1 construct: H460 cells or H460 cells expressing luciferase in a 10 cm plate were incubated with indicated compounds; endogenous in cells; host or cells: H460
Assay: isoTOP-ABPP of compound-treated H460 cells: SCP2
Format: cell-based
Conditions: SCP2 C94; 40 μM
Experimental: For analysis of NR0B1 ligands or control compound reactivity, H460 cells or H460 cells expressing luciferase in a 10 cm plate were incubated with indicated compounds in serum/dye-free RPMI for 3 hours at 37° C. Cells were washed once ice-cold PBS and lysed in 1% Triton X-100 dissolved in PBS with protease inhibitors (Sigma) by sonication. Samples were clarified by centrifugation for 10 min at 16,000×g. Lysate was adjusted to 1.5 mg ml^−1 in 500 μL.
Samples were labeled for 1 h at ambient temperature with 100 μM iodoacetamide alkyne (1, IA-alkyne, 5 μL of 10 mM stock in DMSO). Samples were conjugated by copper-catalyzed azide-alkyne cycloaddition (CuAAC) to isotopically labeled, TEV-cleavable tags (TEV-tags). Heavy CuAAC reaction mixtures was added to the DMSO-treated or shGFP control samples and light CuAAC reaction mixture was added to compound-treated or shNRF2 samples. The CuAAC reaction mixture consisted of TEV tags (light or heavy, 10 μL of 5 mM stocks in DMSO, final concentration=100 μM), 1 mM tris(2-carboxyethyl)phosphine hydrochloride (TCEP; fresh 50× stock in water, final concentration=1 mM), ligand (17× stock in DMSO:t-butanol 1:4, final concentration=100 μM) and 1 mM CuSO4 (50× stock in water, final concentration=1 mM). The samples were allowed to react for 1 h at which point the samples were centrifuged (16,000×g, 5 min, 4° C.). […]

T1 sequence (P22307 whole entry): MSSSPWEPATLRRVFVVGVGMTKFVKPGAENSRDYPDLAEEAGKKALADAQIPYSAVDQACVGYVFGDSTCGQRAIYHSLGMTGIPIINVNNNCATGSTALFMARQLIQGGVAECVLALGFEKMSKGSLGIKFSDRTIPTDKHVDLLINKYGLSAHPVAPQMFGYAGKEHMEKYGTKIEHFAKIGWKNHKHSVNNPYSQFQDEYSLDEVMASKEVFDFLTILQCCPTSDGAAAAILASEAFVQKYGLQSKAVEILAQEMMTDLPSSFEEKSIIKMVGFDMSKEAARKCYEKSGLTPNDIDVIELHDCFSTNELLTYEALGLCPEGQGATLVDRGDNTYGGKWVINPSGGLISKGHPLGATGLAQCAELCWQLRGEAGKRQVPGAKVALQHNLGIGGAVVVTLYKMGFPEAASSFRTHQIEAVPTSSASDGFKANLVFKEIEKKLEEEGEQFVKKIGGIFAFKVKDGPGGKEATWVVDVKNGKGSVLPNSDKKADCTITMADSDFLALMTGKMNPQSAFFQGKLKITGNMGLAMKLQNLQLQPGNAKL

O=C(c1ccc(N2CCOCC2)cc1)N1CCCC(N(Cc2ccccc2)C(=O)CCl)CC1 (stereo not shown) [BPK-29, N-benzyl-2-chloro-N-(1-(4-morpholinobenzoyl)azepan-4-yl)acetamide]
BPK-29-competed isoTOP-ABPP analysis: Yes (Competed defined as showing R value ≥ 3.0 at 40 μM of test compound)
